Laboratory results: patent US8420574B2, “Plant growth enhancement with combinations of PESA and herbicides” (Valent BioSciences Corporation, priority 2009, dated 2013)

Legend:
rice cv. Cheniere [1] = experiment: Pouch assay, PESA salt and herbicide added to the pouch solution; root and shoot length; assay type: in vivo; settings: for Shoot Length / Root Length: 0 ppm PESA salt; for Shoot Length: untreated 3.2; for Root Length: untreated 9.2
Description: Alternatively, PESA salt and herbicides may be added separately to the sterile water in the growth pouch.
(§1) Seeds were placed in germination pouches consisting of germination paper hydrated with sterile water that was an insert in a gas-permeable 16×14 cm plastic pouch (CYG Pouch; Mega International, St. Paul, Minn.). In these examples, in pouch solution evaluation, PESA sodium salt or other active ingredients were added to the sterile water in the pouch. The pouches were arranged in a completely randomized block design in growth racks and placed in 19-liter polycarbonate food storage containers (Rubbermaid Commercial Products, Winchester, Va.). The sealed containers were held in an upright growth cabinet maintained at 25 C with a 12 hour light: 12 hour dark photoperiod. After 6 days, the containers were removed from the growth cabinet, and the lengths of the roots and shoot were measured.

rice cv. Cheniere [2] = experiment: Pouch assay with PESA salt seed treatment; root length; assay type: in vivo; settings: 0 g PESA salt/100 lbs of seed, untreated 9.8
Description: Procedure for Treating Samples of Seed in the Laboratory
Seed was sieved with a screen of mesh size appropriate to remove broken seeds and small trash. Cracked or otherwise damaged seeds were removed. The seed was well mixed, and 50 g samples were weighed into small plastic trays. Seed treatment slurries were made by adding measured amounts of PESA or its salts and other AIs to sufficient water to bring them up to a standard volume, typically 2 ml. A fungicide (Maxim XL; Syngenta Agricultural Products, Greensboro, N.C.), a polymeric binder (CF-Clear; Becker-Underwood, Ames, Iowa), and a colorant (Color Coat Red; Becker-Underwood, Ames, Iowa) were also included in the slurry at label rates. A small aliquot of this slurry was applied to the seed using the Hege 11 coater (Wintersteiger, Salt Lake City, Utah) with a six-inch bowl at a slurry rate of 30 ounces per 100 lbs of seed. The slurry was deposited drop-wise on the spinning disk atomizer using a syringe.
After treatment, each seed sample was placed in plastic trays and dried at a room temperature for 20 to 60 minutes. The samples were then placed in small plastic bags. Samples were spot-checked using a water activity meter to make sure the water activity is below 0.7.
as §1
Rice cv. Chemere was treated with PESA sodium salt prior to growing in the pouch. The treated seeds were then grown in the pouch in a dose-dependent series of trifluralin concentrations (Table 2). […] This confirms that seed treatment with the PESA salt protects or safens rice from the negative effects of trifluralin herbicide on root growth.

CCCN(CCC)c1c([N+](=O)[O-])cc(C(F)(F)F)cc1[N+](=O)[O-] [Trifluralin, trifluralin, reference compound]
Shoot Length (rice cv. Cheniere [1]; 1 ppm trifluralin): 3.7 cm
Root Length (rice cv. Cheniere [1]; 1 ppm trifluralin): 9.8 cm
Shoot Length (rice cv. Cheniere [1]; 10 ppm trifluralin): 3.3 cm
Root Length (rice cv. Cheniere [1]; 10 ppm trifluralin): 8.3 cm
root length reduced by (rice cv. Cheniere [1]; 100 ppm trifluralin): 90%
Shoot Length (rice cv. Cheniere [1]; 100 ppm trifluralin): 2.2 cm
Root Length (rice cv. Cheniere [1]; 100 ppm trifluralin): 0.9 cm
Root Length (rice cv. Cheniere [2]; 50 ppm trifluralin): 0.9 cm
Root Length (rice cv. Cheniere [2]; 100 ppm trifluralin): 0.1 cm
